Laboratory results published in publication PMC12028158, “Synthesis and In Vitro Evaluation of the Anticancer Effect of Novel Phosphonium Vindoline Derivatives” (International Journal of Molecular Sciences, 2025).

Experiments:
Type in all cases: cell-based
[1] = tested on: Melanoma panel; test: NCI60 five-dose screen, panel mean; settings: Homo sapiens, read-out: Mean GI50
[2] = tested on: A498; test: NCI60 five-dose screen; settings: Homo sapiens, A498
[3] = tested on: SW-620; test: NCI60 one-dose screen; settings: Homo sapiens, SW-620, read-out: Growth percent
[4] = tested on: RXF 393; test: NCI60 five-dose screen; settings: Homo sapiens, RXF 393
[5] = tested on: SK-MEL-5; test: NCI60 one-dose screen; settings: Homo sapiens, SK-MEL-5, read-out: Growth percent
[6] = tested on: KM12; test: NCI60 five-dose screen; settings: Homo sapiens, KM12
[7] = tested on: HL-60(TB); test: NCI60 five-dose screen; settings: Homo sapiens, HL-60
[8] = tested on: SF-295; test: NCI60 five-dose screen; settings: Homo sapiens, SF-295
[9] = tested on: Non-small Cell Lung Cancer panel; test: NCI60 five-dose screen, panel mean; settings: Homo sapiens, read-out: Mean GI50
[10] = tested on: Prostate Cancer panel; test: NCI60 five-dose screen, panel mean; settings: Homo sapiens, read-out: Mean GI50
[11] = tested on: COLO 205; test: NCI60 one-dose screen; settings: Homo sapiens, COLO 205, read-out: Growth percent
[12] = tested on: MCF7; test: NCI60 five-dose screen; settings: Homo sapiens, MCF7
[13] = tested on: NCI-H460; test: NCI60 one-dose screen; settings: Homo sapiens, NCI-H460, read-out: Growth percent
[14] = tested on: HT29; test: NCI60 one-dose screen; settings: Homo sapiens, HT-29, read-out: Growth percent
[15] = tested on: SK-MEL-2; test: NCI60 one-dose screen; settings: Homo sapiens, SK-MEL-2, read-out: Growth percent
[16] = tested on: MDA-MB-435; test: NCI60 one-dose screen; settings: Homo sapiens, MDA-MB-435, read-out: Growth percent
[17] = tested on: UO-31; test: NCI60 one-dose screen; settings: Homo sapiens, UO-31, read-out: Growth percent
[18] = tested on: U251; test: NCI60 one-dose screen; settings: Homo sapiens, U-251, read-out: Growth percent
[19] = tested on: NCI-H460; test: NCI60 five-dose screen; settings: Homo sapiens, NCI-H460
[20] = tested on: SNB-19; test: NCI60 five-dose screen; settings: Homo sapiens, SNB-19
[21] = tested on: DU-145; test: NCI60 five-dose screen; settings: Homo sapiens, DU-145
[22] = tested on: NCI-H23; test: NCI60 five-dose screen; settings: Homo sapiens, NCI-H23
[23] = tested on: RPMI-8226; test: NCI60 one-dose screen; settings: Homo sapiens, RPMI-8226, read-out: Growth percent
[24] = tested on: TK-10; test: NCI60 five-dose screen; settings: Homo sapiens, TK-10
[25] = tested on: 786-0; test: NCI60 five-dose screen; settings: Homo sapiens, 786-0
[26] = tested on: OVCAR-3; test: NCI60 five-dose screen; settings: Homo sapiens, OVCAR-3
[27] = tested on: MDA-MB-468; test: NCI60 five-dose screen; settings: Homo sapiens, MDA-MB-468
[28] = tested on: SF-539; test: NCI60 one-dose screen; settings: Homo sapiens, SF-539, read-out: Growth percent
[29] = tested on: MCF7; test: NCI60 one-dose screen; settings: Homo sapiens, MCF7, read-out: Growth percent
[30] = tested on: SR; test: NCI60 one-dose screen; settings: Homo sapiens, read-out: Growth percent
[31] = tested on: NCI-H226; test: NCI60 one-dose screen; settings: Homo sapiens, NCI-H226, read-out: Growth percent
[32] = tested on: HOP-62; test: NCI60 one-dose screen; settings: Homo sapiens, HOP-62, read-out: Growth percent
[33] = tested on: OVCAR-8; test: NCI60 five-dose screen; settings: Homo sapiens, OVCAR-8
[34] = tested on: SF-539; test: NCI60 five-dose screen; settings: Homo sapiens, SF-539
[35] = tested on: SN12C; test: NCI60 one-dose screen; settings: Homo sapiens, read-out: Growth percent
[36] = tested on: MALME-3M; test: NCI60 one-dose screen; settings: Homo sapiens, Malme-3M, read-out: Growth percent
[37] = tested on: EKVX; test: NCI60 five-dose screen; settings: Homo sapiens
[38] = tested on: KM12; test: NCI60 one-dose screen; settings: Homo sapiens, KM12, read-out: Growth percent
[39] = tested on: UACC-257; test: NCI60 five-dose screen; settings: Homo sapiens, UACC-257
[40] = tested on: SF-268; test: NCI60 one-dose screen; settings: Homo sapiens, SF-268, read-out: Growth percent
[41] = tested on: RPMI-8226; test: NCI60 five-dose screen; settings: Homo sapiens, RPMI-8226
[42] = tested on: HOP-92; test: NCI60 five-dose screen; settings: Homo sapiens, HOP-92
[43] = tested on: PC-3; test: NCI60 five-dose screen; settings: Homo sapiens, PC-3
[44] = tested on: LOX IMVI; test: NCI60 one-dose screen; settings: Homo sapiens, read-out: Growth percent
[45] = tested on: SNB-19; test: NCI60 one-dose screen; settings: Homo sapiens, SNB-19, read-out: Growth percent
[46] = tested on: SK-MEL-28; test: NCI60 five-dose screen; settings: Homo sapiens, SK-MEL-28

SMILES: CC[C@]12C=CCN3CC[C@@]4(c5ccc(OC)cc5N(C)[C@H]4[C@@](O)(C(=O)OC)[C@@H]1OC(=O)CCC[P+](c1ccc(F)cc1)(c1ccc(F)cc1)c1ccc(F)cc1)[C@@H]32 [9c]
- GI50 [1]: 8.13 µM
- GI50 [2]: > 48.5 µM
- activity at 10 µM [3]: 45.3%
- GI50 [4]: 8.46 µM
- activity at 10 µM [5]: -38.3%
- GI50 [6]: 8.96 µM
- GI50 [7]: 1.77 µM
- GI50 [8]: > 48.5 µM
- GI50 [9]: 19.6 µM
- GI50 [10]: 18.2 µM
- activity at 10 µM [11]: -18.9%
- GI50 [12]: 8.26 µM
- activity at 10 µM [13]: 30.9%
- activity at 10 µM [14]: 15.7%
- activity at 10 µM [15]: -46.9%
- activity at 10 µM [16]: 6.69%
- activity at 10 µM [17]: 81.5%
- activity at 10 µM [18]: 18.5%
- GI50 [19]: 17 µM
- GI50 [20]: 11.4 µM
- GI50 [21]: 23.7 µM
- GI50 [22]: 15.8 µM
- activity at 10 µM [23]: 24.4%
- GI50 [24]: 22.2 µM
- GI50 [25]: > 48.5 µM
- GI50 [26]: 6.47 µM
- GI50 [27]: 1.5 µM
- activity at 10 µM [28]: 24.2%
- activity at 10 µM [29]: 7.7%
- activity at 10 µM [30]: 42.6%
- activity at 10 µM [31]: 46.9%
- activity at 10 µM [32]: 64%
- GI50 [33]: 18.4 µM
- GI50 [34]: 16.8 µM
- activity at 10 µM [35]: 16.6%
- activity at 10 µM [36]: -32.6%
- GI50 [37]: 19.4 µM
- activity at 10 µM [38]: 21.3%
- GI50 [39]: 4.67 µM
- activity at 10 µM [40]: 42.3%
- GI50 [41]: 2.05 µM
- GI50 [42]: 5.44 µM
- GI50 [43]: 12.6 µM
- activity at 10 µM [44]: 31.1%
- activity at 10 µM [45]: 13.8%
- GI50 [46]: 5.34 µM

SMILES: CC[C@]12C=CCN3CC[C@@]4(c5ccc(OC)cc5N(C)[C@H]4[C@@](O)(C(=O)OC)[C@@H]1OC(=O)CCC[P+](C1CCCCC1)(C1CCCCC1)C1CCCCC1)[C@@H]32 [9d]
- GI50 [1]: 1.7 µM
- GI50 [2]: 12.4 µM
- activity at 10 µM [3]: 3.91%
- GI50 [4]: 1.47 µM
- activity at 10 µM [5]: -98.4%
- GI50 [6]: 1.63 µM
- GI50 [7]: 0.322 µM
- GI50 [8]: 4.41 µM
- GI50 [9]: 3.67 µM
- GI50 [10]: 2.73 µM
- activity at 10 µM [11]: -63.6%
- GI50 [12]: 1.19 µM
- activity at 10 µM [13]: 4.64%
- activity at 10 µM [14]: -56.7%
- activity at 10 µM [15]: -84.9%
- activity at 10 µM [16]: -80.1%
- activity at 10 µM [17]: 76.8%
- activity at 10 µM [18]: -82.5%
- GI50 [19]: 2.77 µM
- GI50 [20]: 2.22 µM
- GI50 [21]: 3.75 µM
- GI50 [22]: 2.31 µM
- activity at 10 µM [23]: -43.5%
- GI50 [24]: 2.73 µM
- GI50 [25]: 4.45 µM
- GI50 [26]: 1.74 µM
- GI50 [27]: 0.313 µM
- activity at 10 µM [28]: -86.5%
- activity at 10 µM [29]: -72.2%
- activity at 10 µM [30]: 29.1%
- activity at 10 µM [31]: -20%
- activity at 10 µM [32]: 4.26%
- GI50 [33]: 2.97 µM
- GI50 [34]: 2.94 µM
- activity at 10 µM [35]: -40.5%
- activity at 10 µM [36]: -96.1%
- GI50 [37]: 3.09 µM
- activity at 10 µM [38]: -63.4%
- GI50 [39]: 1.26 µM
- activity at 10 µM [40]: -54.1%
- GI50 [41]: 0.383 µM
- GI50 [42]: 1.01 µM
- GI50 [43]: 1.71 µM
- activity at 10 µM [44]: -96%
- activity at 10 µM [45]: -60%
- GI50 [46]: 1.08 µM
